The record followed here is US9453021B2, “Pyrimidodiazepinone compound” (Kyowa Hakko Kirin Co., Ltd., priority 2011, dated 2016).

Some results are limits rather than exact numbers.

Sequence of α2δ protein (P54290 25-944 limits assumed): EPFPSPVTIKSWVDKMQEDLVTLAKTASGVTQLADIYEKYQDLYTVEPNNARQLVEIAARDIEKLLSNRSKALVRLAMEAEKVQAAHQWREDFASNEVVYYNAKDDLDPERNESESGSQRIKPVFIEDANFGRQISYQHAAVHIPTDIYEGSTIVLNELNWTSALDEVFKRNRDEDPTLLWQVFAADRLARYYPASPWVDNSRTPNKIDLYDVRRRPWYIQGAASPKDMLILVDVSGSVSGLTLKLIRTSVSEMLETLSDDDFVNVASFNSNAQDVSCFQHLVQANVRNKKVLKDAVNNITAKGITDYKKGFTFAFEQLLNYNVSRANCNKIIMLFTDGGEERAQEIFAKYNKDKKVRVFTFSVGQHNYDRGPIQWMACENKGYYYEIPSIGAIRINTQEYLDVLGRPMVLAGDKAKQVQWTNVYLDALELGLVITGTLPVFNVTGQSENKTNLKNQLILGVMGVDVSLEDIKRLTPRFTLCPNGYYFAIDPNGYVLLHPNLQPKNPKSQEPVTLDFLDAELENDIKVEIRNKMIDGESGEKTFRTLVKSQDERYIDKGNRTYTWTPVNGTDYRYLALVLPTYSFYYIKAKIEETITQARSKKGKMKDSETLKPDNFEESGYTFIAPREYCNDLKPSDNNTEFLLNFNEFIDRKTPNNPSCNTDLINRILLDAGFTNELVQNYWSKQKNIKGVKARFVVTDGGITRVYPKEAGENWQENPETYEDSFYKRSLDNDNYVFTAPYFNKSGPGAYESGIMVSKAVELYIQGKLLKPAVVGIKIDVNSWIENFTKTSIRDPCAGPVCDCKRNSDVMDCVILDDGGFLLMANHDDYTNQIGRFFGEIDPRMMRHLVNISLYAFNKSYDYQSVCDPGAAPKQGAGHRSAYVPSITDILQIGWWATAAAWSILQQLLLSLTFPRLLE
Sequence of α2δ protein (P54290 945-1091 limits assumed): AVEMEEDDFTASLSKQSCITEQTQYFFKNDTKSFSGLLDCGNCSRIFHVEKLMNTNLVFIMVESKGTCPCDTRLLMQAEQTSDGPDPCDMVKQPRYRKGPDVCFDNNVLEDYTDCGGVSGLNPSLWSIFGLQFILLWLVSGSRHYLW

In the first test the target is α2δ protein (Rattus norvegicus, UniProt P54290). As to the kind of experiment: α2δ protein binding experiment ([3H]-gabapentin binding inhibition). The following applies: 0.1 μmol/L test compound; [3H]-gabapentin 20 nmol/L; rat cerebral cortex membrane fraction; read-out: inhibitory activity. On the procedure:
Experiment was conducted according to the methods described in European Journal of Pharmacology, 1993, 244, p. 293-301, using the report of Woodruff G N et al. as a reference (Journal of Biological Chemistry, 1996, 271, p. 5768-5776).
(1) Preparation of Membrane Fraction from Rat Cerebral Cortex
A male SD rat was purchased at the age of 6 weeks, and kept for at least 7 days prior to experiment. The cerebral cortex was removed, and gently washed with Tris-sucrose buffer A (containing 0.32 mol/L sucrose, 5 mmol/L tris-acetate, 1 mmol/L ethylenediaminetetraacetic acid (EDTA), 1 mmol/L ethylene glycol tetraacetic acid (EGTA), and a protease inhibitor cocktail tablet, pH 7.4). The cerebral cortex was placed in Tris-sucrose buffer A, and homogenized in 15 strokes (250 rpm) using a teflon homogenizer to obtain a crude extract. The crude extract was centrifuged at 4° C. for 10 minutes at 2,000 rpm, and the supernatant was collected. After adding Tris-sucrose buffer A to the resulting precipitate, the same homogenization and centrifugation procedures as above were performed, and the resulting supernatant was mixed with the previously obtained supernatant to obtain a total collected supernatant. The total collected supernatant was centrifuged at 4° C. for 30 minutes at 20,000 rpm, and the supernatant (cytosolic fraction) was removed. Tris-acetate buffer A (containing 5 mmol/L tris-acetate, 1 mmol/L EDTA, 1 mmol/L EGTA, and a protease inhibitor cocktail tablet, pH 8.0) was added to the remaining precipitate (cell membrane fraction), and the mixture was stirred for 1 hour. The stirred extract was centrifuged at 4° C. for 30 minutes at 26,500 rpm, and Tris-sucrose buffer B (containing 1.2 mol/L sucrose, 5 mmol/L tris-acetate, pH 7.4) was added to the resulting precipitate. The mixture was dispensed in centrifuge tubes in 15-mL portions, and 9 mL of Tris-sucrose buffer C (containing 0.9 mol/L sucrose, 5 mmol/L tris-acetate, pH 7.4) was gently layered on the mixture in each centrifuge tube without disrupting the interface. The centrifuge tubes were centrifuged at 4° C. for 90 minutes at 43,000 rpm, and the membrane fraction at the interface of the Tris-sucrose buffer B and the Tris-sucrose buffer C was collected with a Pasteur pipette. After adding Tris-acetate buffer B (5 mmol/L tris-acetate, pH 7.4) to the collected membrane fraction, the mixture was centrifuged at 4° C. for 20 minutes at 26,500 rpm. The resulting precipitate was resuspended in Tris-acetate buffer B to obtain a cerebral cortex membrane fraction, and the cerebral cortex membrane fraction was stored at −80° C. until use in the binding experiment. For the binding experiment, the stored suspension was centrifuged at 4° C. for 30 minutes at 32,000 rpm, and Binding buffer [a 0.1 w/v % bovine serum albumin (BSA)-containing 10 mmol/L 4-(2-hydroxyethyl)-1-piperazineethanesulfonic acid (HEPES) solution adjusted to pH 7.4 with sodium hydroxide] for the binding experiment was added to the obtained precipitate, and resuspended with a syringe equipped with an injection needle to adjust to the desired concentration.
(2) [^3H]-Gabapentin Binding Inhibition Experiment
A test compound (20 μL) diluted to 5 times of the final concentration with Binding buffer, [^3H]-gabapentin diluted to 100 nmol/L with binding buffer [20 μL (final concentration 20 nmol/L)], and the rat cerebral cortex membrane fraction (60 μL; 12 μg membrane fraction) obtained in the (1) above were added to each well of a 96-well round-bottom plate. After being sufficiently mixed, these were allowed to react at room temperature for 1 hour. After the reaction, the reaction sample was suction filtered using a filter plate with 50 μL/well of 0.3 vol % polyethyleneimine added, and a cell harvester. The filter was then washed with ice-cooled Wash buffer (100 mmol/L NaCl, 0.1 w/v % BSA). […]
With `CCNc1ncc2c(n1)N1CCC[C@H]1CN(c1csc3c(=O)n(C)ccc13)C2=O` [Compound 90, (S)-3-(2-Ethylamino-5-oxo-7a,8,9,10-tetrahydro-5H-pyrimido[5,4-f]pyrrolo[1,2-a][1,4]diazepin-6(7H)-yl)-6-methylthieno[2,3-c]pyridin-7(6H)-one], the inhibition at 0.1 µM is no less than 50%.

As to `CCNc1ncc2c(n1)N1C[C@H](O)C[C@H]1CN(c1cccc3c(=O)n(C)cnc13)C2=O` [Compound 118, (7aS,9R)-2-Ethylamino-9-hydroxy-6-(3-methyl-4-oxo-3,4-dihydroquinazolin-8-yl)-6,7,7a,8,9,10-hexahydro-5H-pyrimido[5,4-f]pyrrolo[1,2-a][1,4]diazepin-5-one], the inhibition at 0.1 µM is no less than 50%.

In the case of `CCNc1ncc2c(n1)N1CCC[C@H]1CN(c1cn(C)c3c(=O)n(C)ccc13)C2=O` [Compound 93, (S)-6-(1,6-Dimethyl-7-oxo-6,7-dihydro-1H-pyrrolo[2,3-c]pyridin-3-yl)-2-ethylamino-6,7,7a,8,9,10-hexahydro-5H-pyrimido[5,4-f]pyrrolo[1,2-a][1,4]diazepin-5-one], the inhibition at 0.1 µM is no less than 50%.

Regarding `CNc1ncc2c(n1)N1CCC[C@H]1CN(c1csc3c(=O)n(C)ccc13)C2=O` [Compound 91, (S)-6-Methyl-3-(2-methylamino-5-oxo-7a,8,9,10-tetrahydro-5H-pyrimido[5,4-f]pyrrolo[1,2-a][1,4]diazepin-6(7H)-yl)thieno[2,3-c]pyridin-7(6H)-one], the inhibition at 0.1 µM was no less than 50%. Still for that read-out and setting: under `Cn1cnc2cccc(N3C[C@@H]4CCCN4c4nc(N)ncc4C3=O)c2c1=O` [Compound 85, (S)-2-Amino-6-(3-methyl-4-oxo-3,4-dihydroquinazolin-5-yl)-6,7,7a,8,9,10-hexahydro-5H-pyrimido[5,4-f]pyrrolo[1,2-a][1,4]diazepin-5-one] stands no less than 50%; under `CCNc1ncc2c(n1)N1C[C@H](F)C[C@H]1CN(c1cccc3c(=O)n(C)cnc13)C2=O` [Compound 115, (7aS,9R)-2-Ethylamino-9-fluoro-6-(3-methyl-4-oxo-3,4-dihydroquinazolin-8-yl)-6,7,7a,8,9,10-hexahydro-5H-pyrimido[5,4-f]pyrrolo[1,2-a][1,4]diazepin-5-one], no less than 50%. In the case of `CCNc1ncc2c(n1)N1C[C@@H](OC)C[C@H]1CN(c1cccc3c(=O)n(C)cnc13)C2=O` [Compound 117, (7aS,9S)-2-Ethylamino-9-methoxy-6-(3-methyl-4-oxo-3,4-dihydroquinazolin-8-yl)-6,7,7a,8,9,10-hexahydro-5H-pyrimido[5,4-f]pyrrolo[1,2-a][1,4]diazepin-5-one], the inhibition at 0.1 µM is no less than 50%.

Consider `CCNc1ncc2c(n1)N1CCC[C@H]1CN(c1cccc3c1CCC(=O)N3C)C2=O` [Compound 83, (S)-2-Ethylamino-6-(1-methyl-2-oxo-1,2,3,4-tetrahydroquinolin-5-yl)-6,7,7a,8,9,10-hexahydro-5H-pyrimido[5,4-f]pyrrolo[1,2-a][1,4]diazepin-5-one], for which the inhibition at 0.1 µM is no less than 50%.

The test system of a further test is Streptozotocin-induced diabetic pain model (diabetic rats). The test is described as follows: Pain relieving effect in streptozotocin-induced diabetic pain model. Type of test: in vivo, rat. The following applies: 1 mg/kg orally; pain threshold by von Frey filaments after 1 hour; STZ diabetic rats. On the procedure: Streptozotocin (STZ)-administered rats are widely used as an insulin-dependent diabetes model. In this model, decreased pain thresholds in response to mechanical stimulation are observed as in diabetic neuropathy patients [British Journal of Pharmacology, 1997, Vol. 122, p. 1478-1482].
(1) Preparation of STZ-Induced Diabetes Model
A STZ solution was prepared as a 30 mg/mL solution by being dissolved in a 0.05 mol/L citric acid aqueous solution (pH 4 to 4.5). The STZ solution (30 mg/mL) was intraperitoneally administered in a 2 mL/kg volume to rats (60 mg/kg). Rats showing 250 mg/dL or higher blood glucose levels after 1 week from the STZ administration were obtained as diabetic rats.
(2) Measurement of Pain Relieving Effect
The evaluation of Pain was performed with von Frey filaments [product name: Touch Test Sensory Evaluator, Model Number Model 58011, Muromachi Kikai Co., Ltd.], and the results were calculated as pain thresholds. Specifically, the above diabetic rats were stimulated by the pressure applied to the underside of the feet with von Frey filaments of varying stimulus strengths, and the stimulus strength at which the […] withdrew their feet was determined. From the result, a 50% pain threshold (paw withdrawal threshold)(g) was calculated by using the Dixon's up and down method [Annual Review of Pharmacology and Toxicology, 1980, Vol. 20, p. 441-462].
Rats with a 50% pain threshold of less than 4 g were used for the evaluation of the test compounds. The test compounds were each suspended in a 0.5% methyl cellulose aqueous solution, and orally administered in a 5 mL/kg volume. After 1 hour, the pain threshold was measured using von Frey filaments. The pain relief rate of the test compound was calculated by using the following equation.
Take `CNc1ncc2c(n1)N1CCC[C@H]1CN(c1cccc3c(=O)n(C)cnc13)C2=O` [Compound 10, (S)-6-(3-Methyl-4-oxo-3,4-dihydroquinazolin-8-yl)-2-methylamino-6,7,7a,8,9,10-hexahydro-5H-pyrimido[5,4-f]pyrrolo[1,2-a][1,4]diazepin-5-one]: the “Relief Rate” value was found to be 91%. With `CNc1ncc2c(n1)N1CCC[C@H]1CN(c1cccn3c(=O)c(C)c(C)nc13)C2=O` [Compound 8, (S)-6-(2,3-Dimethyl-4-oxo-4H-pyrido[1,2-a]pyrimidin-9-yl)-2-methylamino-6,7,7a,8,9,10-hexahydro-5H-pyrimido[5,4-f]pyrrolo[1,2-a][1,4]diazepin-5-one], the “Relief Rate” value came out at 85%. The same measure, in the same setting: next, `CNc1ncc2c(n1)N1CCC[C@H]1CN(c1cccc3c1C(=O)C(=O)N3C)C2=O` [Compound 1-146, (S)-9-Methylamino-5-(1-methylindoline-2,3-dion-4-yl)-1,2,3,3a,4,5-hexahydro-5,8,10,10b-tetraazabenzo[e]azulen-6-one, reference compound]: 6%.

The same test, now with this note: STZ-induced diabetic pain model, 1 mg/kg orally.
For the compound `CNc1ncc2c(n1)N1CCC[C@H]1CN(c1cccc3c(=O)n(C)cnc13)C2=O` [Compound 10, (S)-6-(3-Methyl-4-oxo-3,4-dihydroquinazolin-8-yl)-2-methylamino-6,7,7a,8,9,10-hexahydro-5H-pyrimido[5,4-f]pyrrolo[1,2-a][1,4]diazepin-5-one], the “inhibition rate (in words)” value is given as “good inhibition rate”. Same read-out and setting: under `CNc1ncc2c(n1)N1CCC[C@H]1CN(c1cccn3c(=O)c(C)c(C)nc13)C2=O` [Compound 8, (S)-6-(2,3-Dimethyl-4-oxo-4H-pyrido[1,2-a]pyrimidin-9-yl)-2-methylamino-6,7,7a,8,9,10-hexahydro-5H-pyrimido[5,4-f]pyrrolo[1,2-a][1,4]diazepin-5-one] stands “good inhibition rate”.
